Laboratory results taken from PMC4384635, “Autoinhibition of Bruton's tyrosine kinase (Btk) and activation by soluble inositol hexakisphosphate” (eLife, 2015).
One block for each molecule: values may come before it.

Assays:
[1] = biological target: T1, Bruton's tyrosine kinase (Btk) (Bos taurus, UniProt Q3ZC95, DEL171-383/L542M/S543T/V555T/R562K/S564A/P565S); type: binding
T1 construct: PH-TH-kinase construct (residues 1 to 170 connected to residues 384 to 659)

[2] = biological target: T2, Bruton's tyrosine kinase (Btk) (Bos taurus, UniProt Q3ZC95); assay: ITC; type: binding
T2 construct: PH-TH module (residues 1 to 172)

[3] = biological target: T3, Bruton's tyrosine kinase (Btk) (Bos taurus, UniProt Q3ZC95, N24D/R28C); assay: ITC with the canonical-site mutant (also printed as R28C/N24D and R28C/N24E); type: binding
T3 construct: PH-TH module (residues 1 to 172)

[4] = biological target: T2, Bruton's tyrosine kinase (Btk); assay: ITC; crystal structure at […] Å; also activates full-length Btk (EC50 around […]); type: binding
[5] = biological target: PH-TH module of bovine Btk (residues 1 to 172) (bovine) (UniProt Q3ZC95); assay: not stated; preliminary studies; dimerization of the PH-TH module induced by IP6; dimer to monomers
[6] = biological target: Src-like module of mouse Btk (SH3-SH2-kinase module, residues 214 to 659) (mouse) (UniProt P35991); assay: SEC; peak B from mono-Q, HiPrep S-200 16/60, 25 mM Tris·Cl pH 8.5, 25 mM NaCl, 5 mM DTT, 4°C
[7] = biological target: Src-like module of mouse Btk (SH3-SH2-kinase module, residues 214 to 659) (mouse) (UniProt P35991); assay: cross-linking; peak B; disuccinimidyl glutarate and PAGE analysis; results not shown

T2 sequence (Q3ZC95 1-172): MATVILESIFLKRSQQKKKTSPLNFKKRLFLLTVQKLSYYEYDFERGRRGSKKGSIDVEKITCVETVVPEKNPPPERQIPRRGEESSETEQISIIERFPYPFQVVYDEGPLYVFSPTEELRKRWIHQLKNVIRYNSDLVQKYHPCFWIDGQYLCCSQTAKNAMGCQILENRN
T1 sequence (Q3ZC95 entry or part of it DEL171-383/L542M/S543T/V555T/R562K/S564A/P565S): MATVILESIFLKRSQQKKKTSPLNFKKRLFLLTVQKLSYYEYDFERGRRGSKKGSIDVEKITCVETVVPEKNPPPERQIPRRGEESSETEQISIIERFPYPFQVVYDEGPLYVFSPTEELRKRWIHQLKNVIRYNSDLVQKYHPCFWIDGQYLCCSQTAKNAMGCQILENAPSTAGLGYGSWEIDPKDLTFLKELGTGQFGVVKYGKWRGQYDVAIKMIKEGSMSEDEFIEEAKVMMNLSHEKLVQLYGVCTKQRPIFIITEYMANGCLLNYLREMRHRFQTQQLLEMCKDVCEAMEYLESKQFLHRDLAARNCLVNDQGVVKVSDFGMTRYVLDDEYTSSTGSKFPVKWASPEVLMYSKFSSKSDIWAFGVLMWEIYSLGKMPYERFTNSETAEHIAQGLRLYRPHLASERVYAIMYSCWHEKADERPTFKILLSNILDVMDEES
T3 sequence (Q3ZC95 1-172 N24D/R28C): as the sequence (Q3ZC95 1-172) above, with N24D, R28C counted along it

Molecule: Cc1c(NC(=O)c2ccc(C(C)(C)C)cc2)cccc1-c1cn(C)c(=O)c(Nc2ccc(C(=O)N3CCOCC3)cc2)n1 [CGI1746]
crystal structure at 1.7 Å [1]: structure of the PH-TH-kinase with a bound ATP-competitive inhibitor (CGI1746

Molecule: O=P(O)(O)O[C@H]1[C@H](O)[C@@H](OP(=O)(O)O)[C@H](OP(=O)(O)O)[C@@H](OP(=O)(O)O)[C@H]1O [IP4, inositol tetrakisphosphate]
Kd [2]: 26 ± 6 nM

Molecule: Src-like module of mouse Btk (SH3-SH2-kinase module, residues 214 to 659) (from UniProt P35991 214-659) (domain or fragment)
stoichiometry N [6]: 2
stoichiometry N [7]: 2

Results, then the molecule that gave them:

Kd [3]: 4760 ± 700 nM
Kd [4]: 238 ± 32 nM
Molecule: O=P(O)(O)O[C@H]1[C@H](OP(=O)(O)O)[C@@H](OP(=O)(O)O)[C@H](OP(=O)(O)O)[C@@H](OP(=O)(O)O)[C@H]1OP(=O)(O)O [IP6, inositol hexakisphosphate]

Kd [5]: > 100000 nM
Molecule: PH-TH module of bovine Btk (residues 1 to 172) (from UniProt Q3ZC95 1-172) (domain or fragment)
